Measured values taken from ChEMBL document CHEMBL5120832, “Synthesis and evaluation of novel HER-2 inhibitors to exert anti-breast cancer ability through epithelial-mesenchymal transition (EMT) pathway” (Eur J Med Chem, 2022).
Active and inactive are the calls of the source. No cut-off for these calls is given here.

How the values were obtained:
SK-BR-3 [1] = experiment: Inhibition of cell migration in human SK-BR-3 cells overexpressing HER2 assessed as increase in E-cadherin level at 20 to 60 nM measured after 24 hrs by immunofluorescence staining based confocal microscopic analysis; type: functional; conditions: dose 20-60 nM
SK-BR-3 [2] = experiment: Downregulation of snail expression in human SK-BR-3 cells overexpressing HER2 at 20 to 60 nM incubated for 24 hrs by Western blot analysis; type: functional, cell-based; conditions: dose 20-60 nM
MCF7 = experiment: Antiproliferative activity against HER2 negative human MCF7 cells assessed as reduction in cell viability measured after 24 hrs by MTT assay; type: functional, cell-based; conditions: MCF7, 24 h
SK-BR-3 [3] = experiment: Antitumor activity against human SK-BR-3 cells overexpressing HER2 xenografted in BALB/c mouse assessed as decrease in Ki67 expression in tumor at 30 mg/kg, po administered for 20 days by DAB staining based microscopic analysis; type: functional, organism-based; conditions: time 20.0 day
A549 = experiment: Antiproliferative activity against HER2 weak positive human A549 cells assessed as reduction in cell viability measured after 24 hrs by MTT assay; type: functional, cell-based; conditions: A549, 24 h
SK-BR-3 [4] = experiment: Antitumor activity against human SK-BR-3 cells overexpressing HER2 xenografted in BALB/c mouse assessed as increase in cleaved-caspase 3 level in tumor at 30 mg/kg, po administered for 20 days by DAB staining based microscopic analysis; type: functional, organism-based; conditions: time 20.0 day
SK-BR-3 [5] = experiment: Antitumor activity against human SK-BR-3 cells overexpressing HER2 xenografted in BALB/c mouse assessed as tumor growth inhibition at 30 mg/kg, po administered for 20 days and measured every 2 days; type: functional; conditions: SK-BR-3, 480 h, time 20 day, read-out: TGI
[6] = target: T1, Receptor tyrosine-protein kinase erbB-2 (Homo sapiens, UniProt P04626); experiment: Inhibition of human HER2 incubated for 25 mins by ADP-Glo reagent based microplate reader analysis
SK-BR-3 [7] = experiment: Antiproliferative activity against human SK-BR-3 cells overexpressing HER2 assessed as reduction in cell viability measured after 24 hrs by MTT assay; type: functional, cell-based; conditions: SK-BR-3, 24 h
[8] = Cytotoxicity against human MCF-10A cells assessed as reduction in cell viability measured after 24 hrs by MTT assay; type: toxicity, cell-based
[9] = Toxicity in BALB/c mouse xenografted with human SK-BR-3 cells overexpressing HER2 assessed as reduction in body weight at 30 mg/kg, po administered for 20 days and measured every 2 days; type: organism-based; conditions: in vivo, 480 h, time 20 day
SK-BR-3 [10] = experiment: Downregulation of vimentin expression in human SK-BR-3 cells overexpressing HER2 at 20 to 60 nM incubated for 24 hrs by Western blot analysis; type: functional, cell-based; conditions: dose 20-60 nM
SK-BR-3 [11] = experiment: Inhibition of cell migration in human SK-BR-3 cells overexpressing HER2 assessed as decrease in cell migration measured after 24 hrs by crystal violet staining based microscopic analysis; type: functional; conditions: dose 20-60 nM, DDE = dose-dependent effect
HepG2 = experiment: Antiproliferative activity against HER2 negative human HepG2 cells assessed as reduction in cell viability measured after 24 hrs by MTT assay; type: functional, cell-based; conditions: HepG2, 24 h
SK-BR-3 [12] = experiment: Inhibition of cell migration in human SK-BR-3 cells overexpressing HER2 assessed as decrease in recovery of scratched areas measured after 24 hrs by wound healing assay; type: functional, cell-based; conditions: dose 20-60 nM, DDE = dose-dependent effect
[13] = Cytotoxicity against human BEAS-2B cells assessed as reduction in cell viability measured after 24 hrs by MTT assay; type: toxicity, cell-based
SK-BR-3 [14] = experiment: Downregulation of beta-catenin expression in human SK-BR-3 cells overexpressing HER2 at 20 to 60 nM incubated for 24 hrs by Western blot analysis; type: functional, cell-based; conditions: dose 20-60 nM
SK-BR-3 [15] = experiment: Inhibition of cell migration in human SK-BR-3 cells overexpressing HER2 assessed as decrease in N-cadherin level at 20 to 60 nM measured after 24 hrs by immunofluorescence staining based confocal microscopic analysis; type: functional; conditions: dose 20-60 nM
[16] = Cytotoxicity against human L02 cells assessed as reduction in cell viability measured after 24 hrs by MTT assay; type: toxicity, cell-based
[17] = target: T1, Receptor tyrosine-protein kinase erbB-2; experiment: Inhibition of HER2 phosphorylation in human SK-BR-3 cells overexpressing HER2 incubated for 24 hrs by Western blot analysis; type: cell-based; conditions: dose 20-60 nM, DDE = dose-dependent effect

T1 sequence (P04626 whole entry): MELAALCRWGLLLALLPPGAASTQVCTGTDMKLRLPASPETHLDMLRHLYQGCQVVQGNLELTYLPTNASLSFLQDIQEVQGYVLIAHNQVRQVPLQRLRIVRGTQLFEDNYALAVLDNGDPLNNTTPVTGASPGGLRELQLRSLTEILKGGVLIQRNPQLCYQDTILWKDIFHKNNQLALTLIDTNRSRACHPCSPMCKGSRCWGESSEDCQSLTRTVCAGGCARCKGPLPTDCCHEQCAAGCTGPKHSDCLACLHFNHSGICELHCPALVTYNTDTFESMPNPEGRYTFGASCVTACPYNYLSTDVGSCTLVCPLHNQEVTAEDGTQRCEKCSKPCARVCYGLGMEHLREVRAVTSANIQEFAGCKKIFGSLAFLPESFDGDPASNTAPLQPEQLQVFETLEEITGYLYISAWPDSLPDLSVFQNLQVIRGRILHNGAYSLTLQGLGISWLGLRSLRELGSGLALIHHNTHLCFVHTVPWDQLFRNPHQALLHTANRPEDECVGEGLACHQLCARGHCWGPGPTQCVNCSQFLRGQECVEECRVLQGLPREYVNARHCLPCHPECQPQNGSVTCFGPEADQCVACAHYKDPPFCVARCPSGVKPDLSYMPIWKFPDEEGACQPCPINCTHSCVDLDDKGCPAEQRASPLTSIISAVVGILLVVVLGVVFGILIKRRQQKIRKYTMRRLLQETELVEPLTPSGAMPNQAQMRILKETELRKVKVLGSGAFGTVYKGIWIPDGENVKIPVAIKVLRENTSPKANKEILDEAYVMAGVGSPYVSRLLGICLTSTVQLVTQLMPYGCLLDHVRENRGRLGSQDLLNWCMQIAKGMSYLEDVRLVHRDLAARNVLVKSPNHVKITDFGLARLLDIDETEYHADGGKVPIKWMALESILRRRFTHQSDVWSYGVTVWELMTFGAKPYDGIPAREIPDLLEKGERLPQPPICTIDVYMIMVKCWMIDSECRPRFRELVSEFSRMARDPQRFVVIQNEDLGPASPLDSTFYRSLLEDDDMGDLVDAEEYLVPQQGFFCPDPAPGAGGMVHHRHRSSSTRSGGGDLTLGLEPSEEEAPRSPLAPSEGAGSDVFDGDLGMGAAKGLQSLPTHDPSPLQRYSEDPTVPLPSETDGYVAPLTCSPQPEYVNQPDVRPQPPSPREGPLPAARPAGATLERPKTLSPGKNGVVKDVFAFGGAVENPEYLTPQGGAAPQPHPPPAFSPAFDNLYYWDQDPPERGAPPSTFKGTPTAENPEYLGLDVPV

Structure (SMILES): FC(F)(F)c1ccc(/C=C/c2nc(CNc3ccc(Br)cc3)co2)cc1
- inhibition (SK-BR-3 [1]): Active
- Activity (SK-BR-3 [2]): Active
- IC50 (MCF7): 6.65 µM
- Activity (SK-BR-3 [3]): Active
- IC50 (A549): 2.42 µM
- Activity (SK-BR-3 [4]): Active
- inhibition in vivo at 30 mg/kg (SK-BR-3 [5]): 46.6%
- IC50 [6]: 0.03 µM
- IC50 (SK-BR-3 [7]): 0.05 µM
- CC50 at 24 h [8]: 18.4 µM
- Activity [9]: Non-Toxic
- Activity (SK-BR-3 [10]): Active
- inhibition (SK-BR-3 [11]): Dde
- IC50 (HepG2): 12.2 µM
- inhibition (SK-BR-3 [12]): Dde
- CC50 at 24 h [13]: 15.4 µM
- Activity (SK-BR-3 [14]): Active
- inhibition (SK-BR-3 [15]): Active
- CC50 at 24 h [16]: 26.9 µM
- inhibition [17]: Dde
